In US6169084A, “2-methyl-thieno-benzodiazepine formulation” (Eli Lilly and Company, priority 1998, dated 2001):

Experiments:
[1] = dogs, male vs female; cited from earlier work
[2] = Discoloration of olanzapine in contact with excipients; type: physicochemical; conditions: contacted with certain excipients including powder blends; exacerbated by ambient air, elevated temperatures, moist environments

Cc1cc2c(s1)Nc1ccccc1N=C2N1CCN(C)CC1 [olanzapine, 2-methyl-4-(4-methyl-1-piperazinyl)-10H-thieno[2,3-b][1,5]benzodiazepine]
difference in the pharmacokinetic of olanzapine between the sexes [1]: no difference
discoloration (stability) [2]: undergoes undesirable discoloration
